Data reported in ChEMBL document CHEMBL1201862, “PubChem BioAssay data set” (2004).
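Following 48 hours of exposure in 96-well plates, responses at five concentrations were used to interpolate endpoints linearly. At the GI50, growth is halved.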 Calls of active or inactive are those of the source. No stated cut-off is given here; in the data, active = GI50 up to about 1.1 µM and inactive = higher.

Columns and labels:
Experiment in all cases: NCI-60 cell line screen, 48 h
CCRF-CEM = system: CCRF-CEM
NCI/ADR-RES = system: NCI/ADR-RES
NCI-H522 = system: NCI-H522
OVCAR-4 = system: OVCAR-4
T47D = system: T47D
OVCAR-8 = system: OVCAR-8
COLO 205 = system: COLO 205
K562 = system: K562
NCI-H226 = system: NCI-H226
Malme-3M = system: Malme-3M
SN12C = system: SN12C
OVCAR-3 = system: OVCAR-3
MDA-N = system: MDA-N
U-251 = system: U-251
SNB-75 = system: SNB-75
SK-MEL-2 = system: SK-MEL-2
ACHN = system: ACHN
NCI-H23 = system: NCI-H23
KM12 = system: KM12
LOX IMVI = system: LOX IMVI
BT-549 = system: BT-549
SF-295 = system: SF-295
HOP-62 = system: HOP-62
Hs-578T = system: Hs-578T
RPMI-8226 = system: RPMI-8226
SNB-19 = system: SNB-19
A498 = system: A498
HT-29 = system: HT-29
IGROV-1 = system: IGROV-1
NCI-H460 = system: NCI-H460
A549 = system: A549
SF-268 = system: SF-268
UACC-62 = system: UACC-62
UACC-257 = system: UACC-257
HCT-15 = system: HCT-15
MDA-MB-231 = system: MDA-MB-231
786-0 = system: 786-0
EKVX = system: EKVX
HL-60 = system: HL-60
SW-620 = system: SW-620
MCF7 = system: MCF7
HCC 2998 = system: HCC 2998
UO-31 = system: UO-31
SK-MEL-28 = system: SK-MEL-28
M14 = system: M14
MOLT-4 = system: MOLT-4
DU-145 = system: DU-145
MDA-MB-435 = system: MDA-MB-435
OVCAR-5 = system: OVCAR-5
PC-3 = system: PC-3
CAKI-1 = system: CAKI-1
SK-MEL-5 = system: SK-MEL-5
HCT-116 = system: HCT-116
TK-10 = system: TK-10
SF-539 = system: SF-539
SK-OV-3 = system: SK-OV-3
RXF 393 = system: RXF 393
HOP-92 = system: HOP-92

COc1ccccc1C1SCC(=O)N1c1ccc(-c2ccc(-n3c(-c4ccccc4)nc4ccccc4c3=O)cc2)cc1 (stereo not drawn)
GI50 (CCRF-CEM): > 100 µM (inactive)
GI50 (NCI/ADR-RES): > 100 µM (inactive)
GI50 (NCI-H522): > 100 µM (inactive)
GI50 (OVCAR-4): > 10 µM (inactive)
GI50 (T47D): 91 µM (inactive)
GI50 (OVCAR-8): > 100 µM (inactive)
GI50 (COLO 205): > 100 µM (inactive)
GI50 (K562): > 100 µM (inactive)
GI50 (NCI-H226): > 100 µM (inactive)
GI50 (Malme-3M): > 100 µM (inactive)
GI50 (SN12C): > 100 µM (inactive)
GI50 (OVCAR-3): > 100 µM (inactive)
GI50 (MDA-N): > 100 µM (inactive)
GI50 (U-251): > 100 µM (inactive)
GI50 (SNB-75): > 100 µM (inactive)
GI50 (SK-MEL-2): > 100 µM (inactive)
GI50 (ACHN): > 100 µM (inactive)
GI50 (NCI-H23): > 100 µM (inactive)
GI50 (KM12): > 100 µM (inactive)
GI50 (LOX IMVI): > 100 µM (inactive)
GI50 (BT-549): > 100 µM (inactive)
GI50 (SF-295): > 100 µM (inactive)
GI50 (HOP-62): > 100 µM (inactive)
GI50 (Hs-578T): > 100 µM (inactive)
GI50 (RPMI-8226): > 100 µM (inactive)
GI50 (SNB-19): > 100 µM (inactive)
GI50 (A498): > 100 µM (inactive)
GI50 (HT-29): > 100 µM (inactive)
GI50 (IGROV-1): > 100 µM (inactive)
GI50 (NCI-H460): > 100 µM (inactive)
GI50 (A549): > 100 µM (inactive)
GI50 (SF-268): > 100 µM (inactive)
GI50 (UACC-62): 84.3 µM (inactive)
GI50 (UACC-257): > 100 µM (inactive)
GI50 (HCT-15): > 100 µM
GI50 (MDA-MB-231): > 100 µM (inactive)
GI50 (786-0): > 100 µM (inactive)
GI50 (EKVX): > 100 µM (inactive)
GI50 (HL-60): > 100 µM (inactive)
GI50 (SW-620): > 100 µM (inactive)
GI50 (MCF7): > 100 µM (inactive)
GI50 (HCC 2998): > 100 µM (inactive)
GI50 (UO-31): 29.9 µM (inactive)
GI50 (SK-MEL-28): > 100 µM (inactive)
GI50 (M14): > 100 µM (inactive)
GI50 (MOLT-4): > 100 µM (inactive)
GI50 (DU-145): > 100 µM (inactive)
GI50 (MDA-MB-435): > 100 µM (inactive)
GI50 (OVCAR-5): > 100 µM (inactive)
GI50 (PC-3): > 100 µM (inactive)
GI50 (CAKI-1): > 100 µM (inactive)
GI50 (SK-MEL-5): > 100 µM (inactive)
GI50 (HCT-116): > 100 µM (inactive)
GI50 (TK-10): > 100 µM (inactive)
GI50 (SF-539): 31 µM (inactive)
GI50 (SK-OV-3): > 100 µM (inactive)

Clc1ccc(/C=C/c2nc(Cl)c(-c3ccc(Cl)cc3)c(Cl)n2)cc1
GI50 (CCRF-CEM): 20.4 µM (inactive)
GI50 (NCI/ADR-RES): 68.2 µM (inactive)
GI50 (NCI-H522): 31.5 µM (inactive)
GI50 (RXF 393): 53.8 µM (inactive)
GI50 (OVCAR-4): 71.6 µM (inactive)
GI50 (T47D): 38.3 µM (inactive)
GI50 (OVCAR-8): > 100 µM (inactive)
GI50 (COLO 205): > 100 µM (inactive)
GI50 (K562): 32.1 µM (inactive)
GI50 (NCI-H226): 80.9 µM (inactive)
GI50 (Malme-3M): > 100 µM (inactive)
GI50 (SN12C): 89.9 µM (inactive)
GI50 (OVCAR-3): > 100 µM (inactive)
GI50 (MDA-N): 59.4 µM (inactive)
GI50 (U-251): 40.6 µM (inactive)
GI50 (SNB-75): 19.3 µM (inactive)
GI50 (SK-MEL-2): 25.6 µM (inactive)
GI50 (ACHN): 35.2 µM (inactive)
GI50 (NCI-H23): 27.1 µM (inactive)
GI50 (KM12): > 100 µM (inactive)
GI50 (LOX IMVI): 86.9 µM (inactive)
GI50 (BT-549): > 100 µM (inactive)
GI50 (SF-295): 52.1 µM (inactive)
GI50 (HOP-62): > 100 µM (inactive)
GI50 (Hs-578T): > 100 µM (inactive)
GI50 (RPMI-8226): 23.8 µM (inactive)
GI50 (SNB-19): > 100 µM (inactive)
GI50 (A498): 50.6 µM (inactive)
GI50 (HT-29): 48.9 µM (inactive)
GI50 (IGROV-1): 60 µM (inactive)
GI50 (NCI-H460): 61 µM (inactive)
GI50 (A549): 37.9 µM (inactive)
GI50 (SF-268): > 100 µM (inactive)
GI50 (UACC-62): > 100 µM (inactive)
GI50 (UACC-257): 39.3 µM (inactive)
GI50 (HCT-15): > 100 µM
GI50 (MDA-MB-231): 67 µM (inactive)
GI50 (786-0): 43.8 µM (inactive)
GI50 (HOP-92): > 100 µM (inactive)
GI50 (EKVX): 69.8 µM (inactive)
GI50 (HL-60): 14.3 µM (inactive)
GI50 (SW-620): 68.7 µM (inactive)
GI50 (MCF7): 45.5 µM (inactive)
GI50 (UO-31): 13.6 µM (inactive)
GI50 (SK-MEL-28): > 100 µM (inactive)
GI50 (M14): 29.7 µM (inactive)
GI50 (MOLT-4): 32.5 µM (inactive)
GI50 (DU-145): 76.4 µM (inactive)
GI50 (MDA-MB-435): 53.2 µM (inactive)
GI50 (OVCAR-5): > 100 µM (inactive)
GI50 (PC-3): 42.6 µM (inactive)
GI50 (CAKI-1): 74.8 µM (inactive)
GI50 (SK-MEL-5): 38.8 µM (inactive)
GI50 (HCT-116): 46.8 µM (inactive)
GI50 (TK-10): 62.5 µM (inactive)
GI50 (SF-539): 57.7 µM (inactive)
GI50 (SK-OV-3): > 100 µM (inactive)
